Laboratory results from EP1434565B1, “USE OF GANODERIC ACIDS AS COSMETIC AGENTS” (YVES SAINT LAURENT PARFUMS, (Société Anonyme), priority 2001, dated 2003).

System: MMP1 (collagénase interstitielle humaine)
Assay: Amount of MMP-1 produced by PMA-stimulated fibroblasts (ELISA)
Type: cell-based, humains
Settings: for inhibition at 0.04 %: ganoderic acids 0.04 %, versus témoin + PMA, read-out: diminution de la quantité MMP1; for activity at 0.04 %: read-out: % témoin +PMA; for MMP1 (ng/ml): 4 h pre-incubation, +PMA 0.1 µg/ml
From the text: Les essais figurant au tableau 2 ci-après concernent la régulation d'une enzyme, la MMP1 (collagénase interstitielle humaine) appartenant aux métalloprotéinases, de la famille des protéases, enzymes dégradant la matrice extra-cellulaire, la MMP1 dégradant particulièrement le collagène natif.
Les essais, dont les résultats figurent au tableau 2, ont donc consisté à comparer l'activité de la DHEA et des acides ganodériques B, C2 et G sur la régulation de l'activité de la MMP1 après stimulation des fibroblastes par PMA.
• Fibroblastes humains normaux profonds (type R2Ad2), utilisé au 2e passage. • Culture: 37° C, 5 % CO2 • Milieu de croissance : milieu Tebu PM-1 • Milieu d'essai : DMEM/HAMF10, vol/vol (Invitrogen 21969035 / Invitrogen 31550-023) • Hepes 15 mM (Invitrogen 1563-056) • L-glutamine 2 mM (Invitrogen 25030024) • pénicilline 50 UI/ml streptomycine 50 µg/ml (Invitrogen 15070063) • sans sérum de veau foetal
• solution stock : 10 % dans l'éthanol puis dilution à 0.1 % dans une solution de BSA délipidée à 5 mg/ml final • dilutions : en milieu de culture stérile • concentration finale testée: 0.001 % (50 µg/ml BSA 1^e conc, final) Acide Ganodérique B • solution stock : 10 % en DMSO • dilutions : en milieu de culture stérile • concentration finale testée: 0.04 % (50 µg/ml BSA final) Acide Ganodérique C2 • solution stock : 10 % en DMSO • dilutions : en milieu de culture stérile • concentration finale testée: 0.04 % (50 µg/ml BSA final) Acide Ganodérique G • solution stock : 10 % en DMSO • dilutions : en milieu de culture stérile • concentration finale testée: 0.04 % (50 µg/ml BSA final)
Les cellules ont été ensemensées à 17000 cellules par puits, en plaques 96 puits, une plaque pour chaque temps de culture. Toutes les conditions en triplicata (3 puits de culture). Les cellules ont été pré-cultivées pendant 24 h en milieu sans SVF. Après 24 h de pré-culture, les milieux ont été remplacés par un milieu équivalent contenant) les produits à l'essai ou non (contrôles) ou la DHEA à 0.001 %. Après 4 h d'incubation, une solution 10 fois concentrée de « phorbol myristate acétate » (PMA, Sigma, 0.1 µg/ml final) a été ajoutée ou non (contrôles) et les cellules ont été cultivées pendant 6 h supplémentaires.
A la fin de chaque temps de culture, les milieux de culture ont été récupérés et congelés à -80 °C pour dosage de la quantité de MMP-1 et la viabilité des tapis cellulaires a été contrôlée en utilisant un test standard de réduction du MTT.
Le dosage de MMP-1 (collagénase interstitielle humaine) a été réalisé par ELISA, à l'aide d'un kit « BIOTRACK human MMP-1, ELISA system, Amersham RPN2610 », selon les directives du fournisseur.
Résumé des conditions testées : • Modèle : fibroblastes humains • Test : dosage quantité de MMP-1 produite (protéine, ELISA) • Milieux : sans sérum • Tests : produits à l'essai, DHEA 0.001 % ou contrôles non traités, pendant 4 h • Stimulation : ajout de PMA (ou non, contrôles) et culture pendant 6 h. Produits (selon viabilités sur fibroblastes): • A.G. B 0:04 %; • A.G. C2 0.04 %; • A.G. G 0.04 %; • DHEA 10 µg/ml
Les données brutes de comptage ont été transférées et traitées sous le logiciel PRISM® (Graph Pad Software).
Les comparaisons inter-groupes ont été réalisées par analyse de variance (ANOVA) à l'aide du test de comparaison multiple de Dunnett.

[1] = Fibroblast, ganoderic acid 0,04%, normal human fibroblasts, +PMA, 6h
[2] = ganoderic acid 0,04%, normal human fibroblasts, 6h, Témoin + PMA 17,89

| SMILES | inhibition at 0.04 % (Fibroblast, 6 h) | activity at 0.04 % [1] | MMP1 (ng/ml) [2] | effets anti-vieillissement (régulation MMP1) (result in words, comparison between ganoderic acids B, C2 and G at 0.04 %) | MMP1 (ng/ml) (DHEA 0,001%, normal human fibroblasts, 6h, Témoin + PMA 10,54) | % témoin +PMA (DHEA 0,001%, normal human fibroblasts, +PMA, 6h, 360 min) | activity at 0.001 % (Fibroblast, 6 h, read-out: % témoin +PMA, DHEA 0,001%, normal human fibroblasts, +PMA, 6h) |
| --- | --- | --- | --- | --- | --- | --- | --- |
| CC(CC(=O)CC(C)C1CC(=O)C2(C)C3=C(C(=O)CC12C)C1(C)CCC(O)C(C)(C)C1CC3O)C(=O)O (stereo not shown) [A. ganodérique B, Acide Ganodérique B] | ~30% | 76% | 13,52 ng/ml | – | – | – | – |
| CC(CC(=O)CC(C)C1CC(O)C2(C)C3=C(C(=O)CC12C)C1(C)CCC(O)C(C)(C)C1CC3O)C(=O)O (stereo not shown) [A. ganodérique C2, Acide Ganodérique C2] | ~30% | 72% | 12,95 ng/ml | – | – | – | – |
| CC(CC(=O)CC(C)C1CC(=O)C2(C)C3=C(C(=O)C(O)C12C)C1(C)CCC(O)C(C)(C)C1CC3O)C(=O)O (stereo not shown) [A. ganodérique G, Acide Ganodérique G] | > 40% | 57% | 10,15 ng/ml | activité supérieure aux deux autres acides ganodériques | – | – | – |
| C[C@]12CC[C@H](O)CC1=CC[C@@H]1[C@@H]2CC[C@]2(C)C(=O)CC[C@@H]12 [DHEA, DéHydroEpiAndrostérone, reference compound] | – | – | – | – | 6,38 ng/ml | 61% | 60% |
